Here are results for one compound from patent US20220112149A1, “DRUG DESIGN METHOD ASSOCIATED WITH NATURAL PRODUCTS, PENTACYCLIC TRITERPENOID COMPOUND, PREPARATION METHOD AND APPLICATIONS THEREOF” (Huazhong Agricultural University, priority 2020, published 2022).

Assay [1] concerns NF-κB signaling in HEK293 cells. In words: NF-κB luciferase reporter gene system. Type of assay: cell-based. As to the method: (§1) FIGS. 10A-10C show the inhibition verification effect chart of GA-02 in Example 5, where FIG. 10A: GA-02 inhibited LPS-induced ICAM-1 expression activity. The inflammatory pathway of HMEC-1 cell was activated by 1 μg/mL LPS, to determine the effect of Celastrol and GA-02 on the expression of ICAM-1 induced by LPS. FIG. 10B: The effect of GA-02 on NF-κB signaling. The NF-κB luciferase reporter plasmid was used to transfect HEK293 cells, and the effects of Celastrol and GA-02 on the NF-κB activity induced by TNF-α were determined; FIG. 10C: qRT-PCR was used to detect mRNA relative expressions of IL-1β, TNF-α, IL-6 and MCP-1.
(§2) ICAM-1 is a downstream effector molecule regulated by NF-κB signaling pathway, and NF-κB plays an important role in regulating the expression of ICAM-1 gene. Celastrol can inhibit the activation of the LPS-induced IKK/NF-κB signaling pathway. In order to validate that GA-02 functions through the IKK/NF-κB signaling pathway, we constructed an NF-κB luciferase reporter gene system to validate the inhibitory activity of Celastrol and GA-02 on the luciferase reporter gene. […] In addition, both Celastrol and GA-02 could down-regulate the mRNA transcription levels of inflammatory factors IL-1β, TNF-α, IL-6 and MCP-1 activated by LPS.

The subject of assay [2] is mRNA of IL-1β, TNF-α, IL-6 and MCP-1. In words: qRT-PCR of inflammatory factor mRNA. Type of assay: cell-based. The following applies: activated by LPS. How it is done: as §1, §2

SMILES strings stand for the structures.

Regarding `CC1(C(=O)O)CCC2(C)CCC3(C)C(=CC(=O)C4C5(C)C=C(O)C(=O)C(C)(C)C5CCC43C)C2C1` (stereo not drawn) [GA-02, 3,11-dicarbonyl-1,12-diene-2-hydroxy-oleanane-30 carboxylic acid], the “inhibition of NF-κB reporter fluorescence compared with Celastrol” value in assay [1] (10 μM) is “equivalent to that of 1 μM Celastrol”. Moreover, the “inhibition of the fluorescence intensity, concentration dependence” value in assay [1] (different concentrations) was “concentration-dependent manner”. For the same compound, the “mRNA transcription levels of inflammatory factors IL-1β, TNF-α, IL-6 and MCP-1” value in assay [2] is “down-regulate”.
